Reference: ChEMBL document CHEMBL1255337, “Entecavir exhibits inhibitory activity against human immunodeficiency virus under conditions of reduced viral challenge” (Antimicrob Agents Chemother, 2008)
Activity calls are given as the source filed them. The calls are words filed in the database; no cut-off is given here.

What was measured:
[1] = system: Human immunodeficiency virus 1; format: functional, organism-based; conditions: Human immunodeficiency virus 1, NL4-3, MT2
[2] = system: Human immunodeficiency virus 1; assay: Antiviral activity against 0.006 MOI HIV1 NL4-3 infected in 1 hr-pretreated human MT2 cells measured after 5 days by RT SPA; format: functional, organism-based; conditions: Human immunodeficiency virus 1, NL4-3, MT2
[3] = system: Human immunodeficiency virus 1; assay: microbe, parasite or virus in culture; conditions: Human immunodeficiency virus 1, subtype B-HXB2, MT2
Description: Antiviral activity against HIV1 subtype B-HXB2 infected in 1 hr-pretreated human MT2 cells assessed as inhibition of multicycle replication measured on day 5 postinfection by RT SPA

Hepatitis B virus = assay: Antiviral activity against Hepatitis B virus; format: functional, organism-based
[4] = system: Human immunodeficiency virus 1; assay: Antiviral activity against 0.006 MOI HIV1 NL4-3 infected in human MT2 cells measured after 5 days by RT SPA; format: functional, organism-based; conditions: Human immunodeficiency virus 1, NL4-3, MT2, 120 h
[5] = system: Human immunodeficiency virus 1; assay: Antiviral activity against HIV1 subtype B-NL4-3 infected in 3 hrs pretreated human MT2 cells assessed as inhibition of multicycle replication measured on day 5 postinfection by RT SPA; format: functional, organism-based; conditions: Human immunodeficiency virus 1, subtype B-NL4-3, MT2
[6] = system: Human immunodeficiency virus 1; assay: microbe, parasite or virus in culture; conditions: Human immunodeficiency virus 1, NL4-3, MT2, 120 h
Description: Antiviral activity against 0.02 MOI wild type HIV1 NL4-3 infected in human MT2 cells measured after 5 days by MTS assay

[7] = system: Human immunodeficiency virus 1; assay: Antiviral activity against pseudotype HIV1 LAI-Luc infected in human PBMC measured on day 3 postinfection by luciferase reporter gene assay; format: functional, organism-based; conditions: Human immunodeficiency virus 1, LAI-Luc, 72 h
[8] = system: Human immunodeficiency virus 1; assay: Antiviral activity against 0.005 MOI HIV1 NL4-3 harboring wild type RT infected in human MT2 cells by phenosense assay; format: functional, organism-based; conditions: Human immunodeficiency virus 1, NL4-3, MT2
[9] = Cmax in human at 1 mg, po; conditions: in vivo
[10] = system: Human immunodeficiency virus 1; assay: microbe, parasite or virus in culture; conditions: Human immunodeficiency virus 1, NL4-3, MT2, 120 h; remark: listed apart in the source
Description: Antiviral activity against 0.02 MOI wild type HIV1 NL4-3 infected in human MT2 cells measured after 5 days by RT SPA

[11] = system: Human immunodeficiency virus 1; assay: microbe, parasite or virus in culture; conditions: Human immunodeficiency virus 1, NL4-3, MT2, 120 h; remark: listed apart in the source
Description: Antiviral activity against 0.005 MOI wild type HIV1 NL4-3 infected in human MT2 cells measured after 5 days by MTS assay

[12] = system: Human immunodeficiency virus 1; format: functional, organism-based; conditions: Human immunodeficiency virus 1, NL4-3, MT2; remark: listed apart in the source
[13] = Cmax in human blood; format: ADME, organism-based
CEM-SS = assay: Cytotoxicity against human CEM-SS cells after 10 days by MTT assay; format: cell-based; conditions: 240 h
[14] = system: Human immunodeficiency virus 1; assay: microbe, parasite or virus in culture; conditions: Human immunodeficiency virus 1, subtype B-92US076, PBMC
Description: Antiviral activity against HIV1 subtype B-92US076 infected in 1 hr-pretreated PBMC cells assessed as inhibition of p24 antigen production measured on day 5 postinfection by ELISA

[15] = system: Human immunodeficiency virus 1; assay: microbe, parasite or virus in culture; conditions: Human immunodeficiency virus 1, NL4-3, MT2
Description: Antiviral activity against 0.005 MOI wild type HIV1 NL4-3 infected in 2 hr-pretreated human MT2 cells measured after 5 days by RT SPA

[16] = system: Human immunodeficiency virus 1; assay: microbe, parasite or virus in culture; conditions: Human immunodeficiency virus 1, subtype B-RF, MT2
Description: Antiviral activity against HIV1 subtype B-RF infected in 1 hr-pretreated human MT2 cells assessed as inhibition of multicycle replication measured on day 5 postinfection by RT SPA

[17] = system: Human immunodeficiency virus 1; assay: microbe, parasite or virus in culture; conditions: Human immunodeficiency virus 1, NL4-3, MT2; remark: listed apart in the source
Description: Antiviral activity against 0.01 MOI wild type HIV1 NL4-3 infected in 2 hr-pretreated human MT2 cells measured after 5 days by MTS assay

[18] = system: Human immunodeficiency virus 1; assay: microbe, parasite or virus in culture; conditions: Human immunodeficiency virus 1, NL4-3, MT2, 120 h; remark: listed apart in the source
Description: Antiviral activity against 0.005 MOI wild type HIV1 NL4-3 infected in human MT2 cells measured after 5 days by RT SPA

[19] = system: Human immunodeficiency virus 1; assay: microbe, parasite or virus in culture; conditions: Human immunodeficiency virus 1, subtype B-LAI, MT2
Description: Antiviral activity against HIV1 subtype B-LAI infected in 1 hr-pretreated human MT2 cells assessed as inhibition of multicycle replication measured on day 5 postinfection by RT SPA

[20] = system: Human immunodeficiency virus 1; assay: Antiviral activity against pseudotype HIV1 NL-Luc infected in 24 hrs pretreated HEK293 cells by phenosense assay; format: functional, organism-based; conditions: Human immunodeficiency virus 1, NL-Luc
[21] = system: Human immunodeficiency virus 1; assay: microbe, parasite or virus in culture; conditions: Human immunodeficiency virus 1, subtype B-NL4-3, MT2
Description: Antiviral activity against HIV1 subtype B-NL4-3 infected in 1 hr-pretreated human MT2 cells assessed as inhibition of multicycle replication measured on day 5 postinfection by RT SPA

[22] = system: Human immunodeficiency virus 1; assay: microbe, parasite or virus in culture; conditions: Human immunodeficiency virus 1, NL4-3, MT2; remark: listed apart in the source
Description: Antiviral activity against 0.005 MOI wild type HIV1 NL4-3 infected in 2 hr-pretreated human MT2 cells measured after 5 days by MTS assay

[23] = system: Human immunodeficiency virus 1; assay: microbe, parasite or virus in culture; conditions: Human immunodeficiency virus 1, NL4-3, MT2, 120 h; remark: listed apart in the source
Description: Antiviral activity against 0.05 MOI wild type HIV1 NL4-3 infected in human MT2 cells measured after 5 days by RT SPA

[24] = system: Human immunodeficiency virus 1; assay: microbe, parasite or virus in culture; conditions: Human immunodeficiency virus 1, subtype B-ASM 034, PBMC
Description: Antiviral activity against HIV1 subtype B-ASM 034 infected in 1 hr-pretreated PBMC cells assessed as inhibition of p24 antigen production measured on day 5 postinfection by ELISA

[25] = system: Human immunodeficiency virus 1; assay: Antiviral activity against HIV1 subtype B-NL4-3 infected in 2 hrs pretreated human MT2 cells assessed as inhibition of multicycle replication measured on day 5 postinfection by RT SPA; format: functional, organism-based; conditions: Human immunodeficiency virus 1, subtype B-NL4-3, MT2
[26] = system: Human immunodeficiency virus 1; assay: microbe, parasite or virus in culture; conditions: Human immunodeficiency virus 1, NL4-3, MT2; remark: listed apart in the source
[27] = system: Human immunodeficiency virus 1; assay: microbe, parasite or virus in culture; conditions: Human immunodeficiency virus 1, subtype B-ASM 044, PBMC
Description: Antiviral activity against HIV1 subtype B-ASM 044 infected in 1 hr-pretreated PBMC cells assessed as inhibition of p24 antigen production measured on day 5 postinfection by ELISA

[28] = system: Human immunodeficiency virus 1; assay: Antiviral activity against HIV1 3B infected in MOLT-4/3B cells assessed as inhibition of mature virus release measured after 4 days of infection by RT assay; format: functional, organism-based; conditions: Human immunodeficiency virus 1, 3B, MOLT-4, 96 h
[29] = system: Human immunodeficiency virus 1; assay: microbe, parasite or virus in culture; conditions: Human immunodeficiency virus 1, subtype B-93US143, PBMC
Description: Antiviral activity against HIV1 subtype B-93US143 infected in 1 hr-pretreated PBMC cells assessed as inhibition of p24 antigen production measured on day 5 postinfection by ELISA

[30] = system: Human immunodeficiency virus 1; assay: microbe, parasite or virus in culture; conditions: Human immunodeficiency virus 1, NL4-3, MT2, 120 h; remark: listed apart in the source
Description: Antiviral activity against 0.01 MOI wild type HIV1 NL4-3 infected in human MT2 cells measured after 5 days by MTS assay

[31] = system: Human immunodeficiency virus 1; assay: microbe, parasite or virus in culture; conditions: Human immunodeficiency virus 1, subtype B-SF-2, MT2
Description: Antiviral activity against HIV1 subtype B-SF-2 infected in 1 hr-pretreated human MT2 cells assessed as inhibition of multicycle replication measured on day 5 postinfection by RT SPA

[32] = system: Human immunodeficiency virus 1; assay: microbe, parasite or virus in culture; conditions: Human immunodeficiency virus 1, NL-RLuc, MT2, 120 h
Description: Antiviral activity against pseudotype HIV1 NL-RLuc infected in human MT2 cells measured on day 5 postinfection by luciferase reporter gene assay

[33] = system: Human immunodeficiency virus 1; assay: microbe, parasite or virus in culture; conditions: Human immunodeficiency virus 1, NL4-3, MT2; remark: listed apart in the source
Description: Antiviral activity against 0.02 MOI wild type HIV1 NL4-3 infected in 2 hr-pretreated human MT2 cells measured after 5 days by RT SPA

[34] = system: Human immunodeficiency virus 1; format: functional, organism-based; conditions: NL4-3, 2.5 uM
[35] = system: Human immunodeficiency virus 1; assay: microbe, parasite or virus in culture; conditions: Human immunodeficiency virus 1, NL4-3, MT2; remark: listed apart in the source
Description: Antiviral activity against 0.02 MOI wild type HIV1 NL4-3 infected in 2 hr-pretreated human MT2 cells measured after 5 days by MTS assay

[36] = system: Human immunodeficiency virus 1; assay: Antiviral activity against 0.006 MOI HIV1 NL4-3 infected in 2 hr-pretreated human MT2 cells measured after 5 days by RT SPA; format: functional, organism-based; conditions: Human immunodeficiency virus 1, NL4-3, MT2
[37] = system: Human immunodeficiency virus 1; assay: microbe, parasite or virus in culture; conditions: Human immunodeficiency virus 1, subtype B-3B, MT2
Description: Antiviral activity against HIV1 subtype B-3B infected in 1 hr-pretreated human MT2 cells assessed as inhibition of multicycle replication measured on day 5 postinfection by RT SPA

[38] = system: Human immunodeficiency virus 1; assay: Antiviral activity against HIV1 NL4-3 harboring M184L mutant RT infected in human MT2 cellssmeasured after 7 passages on day 34 postinfection; format: functional, organism-based; conditions: Human immunodeficiency virus 1, NL4-3, MT2
[39] = system: Human immunodeficiency virus 1; assay: microbe, parasite or virus in culture; conditions: Human immunodeficiency virus 1, NL4-3, MT2; remark: listed apart in the source
Description: Antiviral activity against 0.01 MOI wild type HIV1 NL4-3 infected in 2 hr-pretreated human MT2 cells measured after 5 days by RT SPA

[40] = system: Human immunodeficiency virus 1; assay: microbe, parasite or virus in culture; conditions: Human immunodeficiency virus 1, NL4-3, MT2, 120 h; remark: listed apart in the source
Description: Antiviral activity against 0.01 MOI wild type HIV1 NL4-3 infected in human MT2 cells measured after 5 days by RT SPA

[41] = system: Human immunodeficiency virus 1; assay: Antiviral activity against pseudotype HIV1 LAI-Luc infected in human MT2 cells measured on day 3 postinfection by luciferase reporter gene assay; format: functional, organism-based; conditions: Human immunodeficiency virus 1, LAI-Luc, MT2, 72 h
[42] = system: Human immunodeficiency virus 1; assay: Antiviral activity against HIV1 infected in human CEM-SS cells after 10 days by MTT assay; format: functional, organism-based; conditions: Human immunodeficiency virus 1, CEM-SS, 240 h
[43] = system: Human immunodeficiency virus 1; assay: Antiviral activity against pseudotype HIV1 LAI-Luc infected in CD4-positive human HeLa cells measured on day 3 postinfection by luciferase reporter gene assay; format: functional, organism-based; conditions: Human immunodeficiency virus 1, LAI-Luc, 72 h
[44] = system: Human immunodeficiency virus; assay: Antiviral activity against HIV infected in CD4+ lymphocyte by fluorescence-activated cell sorter assay; format: functional, organism-based; conditions: Human immunodeficiency virus 1
[45] = system: Human immunodeficiency virus 1; assay: microbe, parasite or virus in culture; conditions: Human immunodeficiency virus 1, NL4-3, MT2, 120 h; remark: listed apart in the source
Description: Antiviral activity against 0.05 MOI wild type HIV1 NL4-3 infected in human MT2 cells measured after 5 days by MTS assay

[46] = system: Human immunodeficiency virus 1; assay: microbe, parasite or virus in culture; conditions: Human immunodeficiency virus 1, NL4-3, MT2; remark: listed apart in the source
Description: Antiviral activity against 0.05 MOI wild type HIV1 NL4-3 infected in 2 hr-pretreated human MT2 cells measured after 5 days by MTS assay

[47] = system: Human immunodeficiency virus 1; assay: microbe, parasite or virus in culture; conditions: Human immunodeficiency virus 1, NL4-3, MT2; remark: listed apart in the source
Description: Antiviral activity against 0.05 MOI wild type HIV1 NL4-3 infected in 2 hr-pretreated human MT2 cells measured after 5 days by RT SPA

O=C1Nc2ccc(Cl)cc2[C@@](C#CC2CC2)(C(F)(F)F)O1 [EFAVIRENZ]
EC50 [1]: 0.0002 µM

C=C1[C@H](CO)[C@@H](O)C[C@@H]1n1cnc2c(=O)[nH]c(N)nc21.O [ENTECAVIR]
EC50 [2]: 0.287 µM | EC50 [3]: 1.03 µM | EC50 (Hepatitis B virus): 0.004 µM | EC50 [4]: 0.151 µM | EC50 [5]: > 10 µM | EC50 [6]: > 6.35 µM | EC50 [7]: > 2.5 µM | EC50 [8]: 30.6 µM | Cmax [9]: 30 nM | EC50 [10]: 0.449 µM | EC50 [11]: 1.36 µM | EC50 [12]: > 100 µM | Cmax [13]: 30 nM | CC50 (CEM-SS): 21 µM | EC50 [14]: 0.062 µM | EC50 [15]: 3.62 µM | EC50 [16]: 0.839 µM | EC50 [17]: > 9.69 µM | EC50 [18]: 0.056 µM | EC50 [19]: 0.071 µM | EC50 [20]: 30.6 µM | EC50 [1]: > 10 µM | EC50 [21]: 0.085 µM | EC50 [22]: > 10 µM | EC50 [23]: 6.45 µM | EC50 [24]: 0.109 µM | EC50 [25]: 1.4 µM | EC50 [26]: 0.056 µM | EC50 [27]: 0.026 µM | EC50 [28]: > 38 µM | EC50 [29]: 1.75 µM | EC50 [30]: > 2.9 µM | EC50 [31]: 0.526 µM | EC50 [32]: 1.3 µM | EC50 [33]: > 10000 µM | Activity [34]: Active | EC50 [35]: > 10 µM | EC50 [36]: 13.5 µM | EC50 [37]: 0.081 µM | EC50 [38]: > 10 µM | EC50 [39]: 9.57 µM | EC50 [40]: 0.095 µM | EC50 [41]: > 1.2 µM | EC50 [42]: > 10 µM | EC50 [43]: > 4 µM | EC50 [44]: 0.0001 µM | EC50 [45]: > 10 µM | EC50 [46]: > 10 µM | EC50 [47]: > 10000 µM

Nc1ccn([C@@H]2CS[C@H](CO)O2)c(=O)n1 [LAMIVUDINE]
EC50 [3]: 0.202 µM | EC50 [6]: 0.969 µM | EC50 [10]: 0.086 µM | EC50 [11]: 0.219 µM | EC50 [14]: 0.081 µM | EC50 [15]: 0.462 µM | EC50 [16]: 0.105 µM | EC50 [17]: 1.68 µM | EC50 [18]: 0.04 µM | EC50 [19]: 0.182 µM | EC50 [1]: > 10 µM | EC50 [21]: 0.171 µM | EC50 [22]: 1.26 µM | EC50 [23]: 0.372 µM | EC50 [24]: 0.071 µM | EC50 [26]: 0.04 µM | EC50 [27]: 0.04 µM | EC50 [28]: > 100 µM | EC50 [29]: 0.85 µM | EC50 [30]: 0.554 µM | EC50 [31]: 0.183 µM | EC50 [32]: 1.14 µM | EC50 [33]: 1.99 µM | Activity [34]: inactive | EC50 [35]: 2.44 µM | EC50 [37]: 0.047 µM | EC50 [39]: 0.667 µM | EC50 [40]: 0.063 µM | EC50 [45]: 0.927 µM | EC50 [46]: 3.25 µM | EC50 [47]: 2.47 µM

Cc1c(O)cccc1C(=O)N[C@@H](CSc1ccccc1)[C@H](O)CN1C[C@H]2CCCC[C@H]2C[C@H]1C(=O)NC(C)(C)C [NELFINAVIR]
EC50 [28]: 0.029 µM

Cc1cn([C@H]2C[C@H](N=[N+]=[N-])[C@@H](CO)O2)c(=O)[nH]c1=O [ZIDOVUDINE]
EC50 [3]: 0.014 µM | EC50 [6]: 0.054 µM | EC50 [10]: 0.018 µM | EC50 [11]: 0.027 µM | EC50 [14]: 0.008 µM | EC50 [15]: 0.051 µM | EC50 [16]: 0.0029 µM | EC50 [17]: 0.144 µM | EC50 [18]: 0.01 µM | EC50 [19]: 0.0038 µM | EC50 [1]: 0.005 µM | EC50 [21]: 0.0049 µM | EC50 [22]: 0.117 µM | EC50 [23]: 0.043 µM | EC50 [24]: 0.018 µM | EC50 [26]: 0.01 µM | EC50 [27]: 0.016 µM | EC50 [28]: > 10 µM | EC50 [29]: 0.034 µM | EC50 [30]: 0.038 µM | EC50 [31]: 0.0063 µM | EC50 [32]: 0.016 µM | EC50 [33]: 0.209 µM | EC50 [35]: 0.223 µM | EC50 [37]: 0.0012 µM | EC50 [39]: 0.075 µM | EC50 [40]: 0.008 µM | EC50 [45]: 0.087 µM | EC50 [46]: 0.302 µM | EC50 [47]: 0.249 µM
